Test results reported in patent US8846111B2, “Compositions and methods for establishing and/or maintaining pregnancy” (Alltech, Inc., priority 2007, dated 2014).

Tested on: gene encoding relaxin
Assay: AFFYMETRIX chicken genome array, oviduct RNA of hens fed selenium: relaxin
Assay type: in vivo
Conditions: 0.3 ppm selenium in diet, over forty weeks, relative to selenium deficient animals
Excerpt: In an effort to examine possible benefits of administration of selenium on female reproductive performance, hens were randomly selected from a broiler-breeder flock housed at Coldstream poultry facility, University of Kentucky. The hens were maintained on a selenium-deficient diet from 6 weeks of age until 22 weeks of age and were then placed on the following dietary treatments for over forty weeks until the time of sampling: 1) Control, selenium-deficient, Torula yeast-based diet (0.02 ppm selenium); 2) The control diet supplemented with 0.3 ppm selenium from sodium selenite; and 3) The control diet supplemented with 0.3 ppm selenium from SEL-PLEX. Hens were taken from each of the three experimental groups, their oviducts removed, flash-frozen and stored at −80° C. prior to RNA isolation.
Labeled RNA preparations from oviduct were hybridized with AFFYMETRIX chicken genome arrays containing 38,000 probe sets using standard methodology.

`O=[Se](O)O` [sodium selenite] was tested, and the “relaxin gene expression, upregulation” value was “no significant effect”.
